Laboratory results published in patent publication US6716582B2 (priority 2000, dated 2004).

Legend:
[1] = system: yebF-luxCDABE fusion; assay: inverted yebF-luxCDABE fusion induction by DNA damaging agents; assay type: cell-based, E. coli; conditions: inverted yebF-lux transformants; nalidixic acid
Description: In this case, a divergent promoter to the purT gene was present in the chromosomal fragment and strains containing the backward yebF fusion produced light. Following isolation of plasmid DNA, XmaI digestion that releases the insert DNA from the vector, religation and transformation, 10% of the transformants produced light. […] The orientation of the inserted segment to yield a fusion of yebF to the luxCDABE operon was confirmed by DNA sequence analysis.
To test inverting of a chromosomal segment in a plasmid containing divergent promoters, the backward fusion to yebF was chosen. […] In this case, a divergent promoter to the purT gene was present in the chromosomal fragment and strains containing the backward yebF fusion produced light. Following XmaI digestion, religation and transformation, 10% of the transformants produced light. […] This was verified by DNA sequence analysis. Thus, inverting chromosomal segments containing divergent promoters is possible and is facilitated if the two promoters can be distinguished by their biological activity.

[2] = system: Luxarray 0.5 luxCDABE reporter clones; assay: Luxarray 0.5 solid phase perturbation with nalidixic acid; assay type: cell-based, E. coli; conditions: for bioluminescence response: solid phase, 1 or 5 μg/ml, 2 hrs
Method: A solid phase assay system consisting of reporter clones growing in the presence or absence of a perturbation, biological, environmental or chemical was developed. This was accomplished by growing the reporters on a porous membrane (Biodyne B, Nunc) seated on top of solid growth media in a culture dish (OmniTray, Nunc). Luminescence was measured either by a luminometer or by creating an image of the entire culture and quantitating the pixel density. Effects of perturbants can be determined by comparison of luminescence generated by treated and control cultures. Growth on the surface of the membrane allows the reporter assay to be moved between conditions as required. Experimental protocols often involve perturbations that prohibit long term exposure due to cell death or other irreversible effects. The ability to move the entire array to new growth conditions allows one a great variety of experimental schemes such as pulsed or pulse/chase exposures, reversibility, and short term kinetic studies.
Membranes were sterilized with UV illumination for 10 min then placed in contact with prewarmed media in a culture dish. The clones and controls were printed onto an approximately 8×12 cm membrane mimicking the pattern of a 96-well plate (FIG. 3A). Strains were printed to generate 8 repeating sections of the 10 strains and two controls and placed in a Dynex ML3000 luminometer prewarmed to 37° C. Luminescence data was collected for each spot for 40 cycles of 20 min duration (overnight). […] Without exception, the signal strength measured corroborated the data obtained in liquid culture. Additionally, replicates varied minimally, again similar to liquid culture measurements.
Next the system was evaluated for its ability to determine responses to perturbation, in this case, DNA damage caused by nalidixic acid. Parental clone and two nonresponding reporters, osmY, and lacZYA, and three DNA damage responsive reporters, uvrA, recA, dinG, were chosen. […] The membranes were moved to new, pre-warmed plates containing varying amounts of nalidixic acid and light readings collected with an ML3000 luminometer. […] Luminescence was measured with a Dynex ML3000 luminometer every 30 min for 2 hrs. […] The strain containing the parental plasmid, pDEW201, without a promoter driving luxCDABE expression produces very low levels of bioluminescence that are very close to the background measured on a ML3000 luminometer for strains grown in 96-well microplates. […]
The clones of Luxarray 0.5 were used to print arrays as described above at a 4×4 density. […] Spot intensity was determined using ArrayVision™ (Imaging Research, Toronto, Canada).

With `CCn1cc(C(=O)O)c(=O)c2ccc(C)nc21` [Nalidixic acid, nalidixic acid] the induction of bioluminescence [1] was “highly induced”, the bioluminescence response ([2]; SOS regulon reporters uvrA, recA, dinG) was “increased bioluminescence” and the reporter expression ([2]; five DNA damage-responsive reporters, high density array, 5 μg/ml, 0-8 hr) was “upregulation of expression”. The light production ([2]; lac promoter fusion and several other promoter fusions, high density array, 5 μg/ml) was “decreased” and the bioluminescence response ([2]; osmY and lacZYA fusions) was “unaffected”.
